Laboratory results reported in ChEMBL document CHEMBL3400056, “Novel thiazolo[3,2-b]-1,2,4-triazoles derived from naproxen with analgesic/anti-inflammatory properties: Synthesis, biological evaluation and molecular modeling studies” (Bioorg Med Chem, 2015).

Tests used:
[1] = tested on: Mus musculus; assay: Acute toxicity in Swiss albino mouse assessed as weight loss at 50 to 100 mg/kg, po measured up to 14 days; assay type: organism-based; parameters: dose 50-100 mg/kg, route oral; conditions: in vivo, 336 h
[2] = tested on: Mus musculus; assay: Gastrointestinal toxicity in Swiss albino mouse assessed as ulcer index at 50 mg/kg, po measured after 2 hrs; assay type: organism-based; parameters: dose 50 mg/kg, route oral; conditions: in vivo
[3] = tested on: Mus musculus; assay: Analgesic activity in Swiss albino mouse assessed as time of licking paws at 100 mg/kg, po measured after 2 hrs by tail flick test relative to control; assay type: functional
[4] = tested on: Mus musculus; assay: Analgesic activity in Swiss albino mouse assessed as latancy of withdrawing tail at 50 mg/kg, po measured after 2 hrs by tail flick test relative to control; assay type: functional
[5] = tested on: Mus musculus; assay: Analgesic activity in Swiss albino mouse assessed as latancy of withdrawing tail at 100 mg/kg, po measured after 2 hrs by tail flick test relative to control; assay type: functional
[6] = tested on: Mus musculus; assay: Gastrointestinal toxicity in Swiss albino mouse assessed as ulcer index at 100 mg/kg, po measured after 2 hrs; assay type: organism-based; parameters: dose 100 mg/kg, route oral; conditions: in vivo
[7] = tested on: Mus musculus; assay: Acute toxicity in Swiss albino mouse assessed as behavioral changes at 50 to 100 mg/kg, po measured up to 14 days; assay type: organism-based; parameters: dose 50-100 mg/kg, route oral; conditions: in vivo, 336 h
[8] = tested on: Mus musculus; assay: Antiinflammatory activity in Swiss albino mouse assessed as inhibition of carrageenan-induced paw edema at 50 mg/kg, po administered 1 hr prior to carrageenan challenge measured after 2 hrs relative to control; assay type: functional; parameters: scale not given: the % may be the effect or the level left
[9] = tested on: Mus musculus; assay: Analgesic activity in Swiss albino mouse assessed as time of licking paws at 50 mg/kg, po measured after 2 hrs by tail flick test relative to control; assay type: functional
[10] = tested on: Mus musculus; assay: Acute toxicity in Swiss albino mouse assessed as mortality at 50 to 100 mg/kg, po measured after 6 hrs to 14 days; assay type: organism-based; parameters: dose 50-100 mg/kg, route oral; conditions: in vivo
[11] = tested on: Mus musculus; assay: Antiinflammatory activity in Swiss albino mouse assessed as inhibition of carrageenan-induced paw edema at 100 mg/kg, po administered 1 hr prior to carrageenan challenge measured after 2 hrs relative to control; assay type: functional; parameters: scale not given: the % may be the effect or the level left

| SMILES | Activity [1] | UI [2] | MPE [3] | MPE [4] | MPE [5] | UI [6] | Activity [7] | Activity [8] | MPE [9] | Activity [10] | Activity [11] |
| --- | --- | --- | --- | --- | --- | --- | --- | --- | --- | --- | --- |
| COc1ccc2cc(C(C)c3nc4s/c(=C\c5cccc(OCc6ccccc6)c5)c(=O)n4n3)ccc2c1 (stereo unspecified) | Non-toxic | 2.9 | 19.2% | 24.8% | 22.3% | 2.9 | Non-toxic | 37.9% | 21.5% | Non-toxic | 34.4% |
| COc1ccc2cc(C(C)c3nc4s/c(=C\c5cccs5)c(=O)n4n3)ccc2c1 (stereo unspecified) | Non-toxic | 2.6 | 21.3% | 10.5% | 24.9% | 2.3 | Non-toxic | 21.7% | 16.2% | Non-toxic | 21.2% |
| COc1ccc2cc(C(C)c3nc4s/c(=C\c5ccc(OCc6ccccc6)cc5)c(=O)n4n3)ccc2c1 (stereo unspecified) | Non-toxic | 3 | 14.5% | 24.4% | 28.1% | 2.7 | Non-toxic | 44.5% | 23.6% | Non-toxic | 32.5% |
| COc1ccc2cc(C(C)c3nc4s/c(=C\c5ccc(OC(C)=O)cc5)c(=O)n4n3)ccc2c1 (stereo unspecified) | Non-toxic | 2.9 | 19.9% | 23.3% | 18.2% | 2.7 | Non-toxic | 36.2% | 24.9% | Non-toxic | 33.6% |
| COc1ccc2cc(C(C)c3nc4s/c(=C\c5ccccc5OC(C)=O)c(=O)n4n3)ccc2c1 (stereo unspecified) | Non-toxic | 2.9 | 27% | 27.8% | 13.3% | 3 | Non-toxic | 26.6% | 19.8% | Non-toxic | 44.9% |
| COc1ccc2cc(C(C)c3n[nH]c(=S)[nH]3)ccc2c1 (stereo unspecified) | Non-toxic | 2.1 | 8.2% | 16.8% | 22.2% | 2.3 | Non-toxic | 30.1% | 18.7% | Non-toxic | 21.3% |
| COc1ccc2cc(C(C)c3nc4s/c(=C\c5ccccc5OCc5ccccc5)c(=O)n4n3)ccc2c1 (stereo unspecified) | Non-toxic | 2.4 | 25.2% | 18.9% | 18% | 2.6 | Non-toxic | 43% | 17.7% | Non-toxic | 33.9% |
| COc1ccc2cc(C(C)c3nc4s/c(=C\c5cc(Br)cs5)c(=O)n4n3)ccc2c1 (stereo unspecified) | Non-toxic | 2.9 | 21.2% | 28.7% | 19% | 2.9 | Non-toxic | 43% | 20.1% | Non-toxic | 32.3% |
| COc1ccc2c3c1O[C@H]1C(=O)CC[C@@]4(O)[C@@H](C2)N(C)CC[C@]314 [OXYCODONE] |  | 1.5 | 52.9% | 63.3% | 66.9% | 1.5 |  | 0.9% | 52.9% |  | 3.9% |
| COc1ccc2cc(C(C)c3nc4s/c(=C\c5ccc(C)o5)c(=O)n4n3)ccc2c1 (stereo unspecified) | Non-toxic | 1.3 | 35.3% | 38.1% | 48.6% | 2.7 | Non-toxic | 41% | 23.9% | Non-toxic | 37% |
| COc1ccc2cc(C(C)c3nc4s/c(=C\C=C\c5ccccc5)c(=O)n4n3)ccc2c1 (stereo unspecified) | Non-toxic | 2.4 | 24.8% | 28.4% | 30.9% | 3.2 | Non-toxic | 36.2% | 15.8% | Non-toxic | 37% |
| COc1ccc2cc(C(C)c3nc4s/c(=C\c5cn(C(C)=O)c6ccccc56)c(=O)n4n3)ccc2c1 (stereo unspecified) | Non-toxic | 2.7 | 18.7% | 30.8% | 28.3% | 2.4 | Non-toxic | 37.7% | 17.5% | Non-toxic | 43.3% |
| COc1ccc2cc(C(C)c3nc4s/c(=C\c5ccco5)c(=O)n4n3)ccc2c1 (stereo unspecified) | Non-toxic | 2.6 | 22% | 13.3% | 19.3% | 1.9 | Non-toxic | 15.2% | 19.7% | Non-toxic | 26% |
| COc1ccc2cc(C(C)c3nc4s/c(=C\c5cccc(OC(C)=O)c5)c(=O)n4n3)ccc2c1 (stereo unspecified) | Non-toxic | 2.9 | 20.7% | 19.2% | 20% | 2.4 | Non-toxic | 31.6% | 17.5% | Non-toxic | 29.1% |
| COc1ccc2cc(C(C)c3nc4s/c(=C\c5sccc5C)c(=O)n4n3)ccc2c1 (stereo unspecified) | Non-toxic | 2.6 | 18.3% | 15.2% | 10.2% | 2.7 | Non-toxic | 22.5% | 13.5% | Non-toxic | 19.7% |
| COc1ccc2cc(C(C)c3nc4s/c(=C\c5ccc6ccccc6c5)c(=O)n4n3)ccc2c1 (stereo unspecified) | Non-toxic | 2 | 30.3% | 30% | 32.2% | 3.4 | Non-toxic | 37.9% | 17.7% | Non-toxic | 44.9% |
| COc1ccc2cc([C@H](C)C(=O)O)ccc2c1 [NAPROXEN] |  | 3.6 | 38.6% | 47.6% | 49.4% | 4.2 |  | 49.2% | 39.3% |  | 53.3% |
